Measured values taken from patent publication US7501513B2, “Immunosuppressive effects of pteridine derivatives” (4 AZA Bioscience NV, priority 2003, dated 2009).
pIC50: −log10 of the molar value.

Key:
IL-5 = experiment: Inhibition of the release of IL-5; format: cell-based; settings: at 0.1 μM/l
Experimental: (§1) 2-amino-4-morpholino-6-(3,4-dimethoxyphenyl)pteridine (a compound known from WO 00/39129) was tested, according to experimental procedures well established in the art, in the inhibition of two cytokines, IL-5 and IL-10, known to be involved in the development of asthma and other forms of severe allergic conditions.

B16BL/6 melanoma cells = experiment: Inhibition of the metastasis of melanoma cells in mice; format: in vivo, C57BL/6 mice; settings: 20 mg/kg intraperitoneously, three times a week for two weeks; control group 80%
Experimental: C57BL/6 mice were injected with 1.5×10^6 B16BL/6 melanoma cells and were divided into 2 groups. Five days after the injection of the tumor cells, the two groups of animals were administered intraperitoneously, three times a week for two subsequent weeks, either (treated group) 20 mg/kg of 2-amino-4-morpholino-6-(3,4-dimethoxyphenyl)pteridine (a compound known from WO 00/39129) or (control group) the vehicle (5% DMSO in phosphate buffered saline). At the end of the experiment, all surviving tumor-bearing mice were sacrificed and examined in order to assess the absence or presence of the black metastases in inguinal and/or para-aortic lymph nodes (macroscopic metastasis). The findings were confirmed by histology, and the experiment done twice.

IL-10 = experiment: Inhibition of the release of IL-10; format: cell-based; settings: at 0.1 μM/l
Experimental: as §1

[1] = test system: Peripheral blood mononuclear cells; experiment: Mixed lymphocyte reaction (MLR) test; format: cell-based, human; settings: Homo sapiens, PBMC; Table 1; 50% suppression of the MLR
Experimental: (§2) Pteridine derivatives were first dissolved (10 mM) in dimethylsulfoxide (hereinafter referred as DMSO) and further diluted in culture medium before use for the following in vitro experiments. The commercially available culture medium consisted of RPMI-1640+10% foetal calf serum (FCS). Some pteridine derivatives described the previous examples were tested in the following lymphocyte activation tests:
(§3) Peripheral blood mononuclear cells (hereinafter referred as PBMC) were isolated from heparinized peripheral blood by density gradient centrifugation over Lymphoprep (Nycomed, Maorstua, Norway). Allogeneic PBMC or Eppstein-Barr Virus-transformed human B cells [commercially available under the trade name RPMI1788 (ATCC name CCL156)] which strongly express B7-1 and B7-2 antigens were used as stimulator cells after irradiation with 30 Gy. MLR was performed in triplicate wells. After 5 days incubation at 37° C., 1 μCi [^3H]-thymidine was added to each cup. After a further 16 hours incubation, cells were harvested and counted in a β-counter. Inhibition of proliferation by a compound (drug) described in some of the previous examples was counted using the formula:
(§4) [formula] wherein cpm is the thymidine count per minute. The MLR assay is regarded by those skilled in the art as an in vitro analogue of the transplant rejection since it is based on the recognition of allogeneic major histocompatibility antigens on the stimulator leukocytes, by responding lymphocytes. Assays for CD3 and CD 28
Pteridine derivatives were first dissolved (10 mM) in dimethylsulfoxide (hereinafter referred as DMSO) and further diluted in culture medium before use for the following in vitro experiments. The commercially available culture medium consisted of RPMI-1640+10% foetal calf serum (FCS). Some pteridine derivatives described in the previous examples (as indicated in table 3 below) were tested in the following mixed lymphocyte reaction (MLR) assay.
as §3, with “CCL156)]which” for “CCL156)] which”
as §4, with “lymphocytes.” for “lymphocytes. Assays for CD3 and CD 28”

[2] = test system: Highly purified T cells stimulated by anti-CD3 mAb; experiment: CD3 assay: T-cell proliferation stimulated by immobilized anti-CD3 mAb + PMA (BrdU); format: cell-based, human; settings: Homo sapiens; 50% reduction in T-cell proliferation; read-out: CD 3 IC50
Experimental: as §2
(§5) T cells were purified by removing non-T cells. Briefly, monocytes were removed by cold agglutination. The resulting lymphoid cells were further purified by a cell enrichment immunocolumn [Cellect Human T commercially available from Biotex, Edmonton, Alberta, Canada)] by a process of negative selection. More than 95% of the B cells were removed with this procedure. After depletion, the resulting T cell preparation was highly purified, i.e. these cells could not be activated by phytohaemagglutinin (PHA) or rIL-2 alone at concentrations capable of stimulating RBMC prior to deletion.
(§6) Highly purified T cells (10^6/ml) were stimulated by immobilized anti-CD3 or anti-CD28 monoclonal antibodies (hereinafter referred as mAb) in the presence of phorbol myristate acetate (hereinafter referred as PMA). Anti-CD3 mAb (available from CLB, Amsterdam, Netherlands) were fixed on a 96-microwell plates by incubating the wells with 50 μl of mAb solution (1/800 dilution in culture medium). For anti-CD28 mAb (available from CLB, Amsterdam, Netherlands) 50 μl (1/650 dilution in culture medium) was added directly to the wells. Further, a 20 μl PMA (commercially available from Sigma, St. Louis, Mo., USA) solution (final concentration: 0.5 ng/ml) was added. Subsequently, 20 μl of a pteridine derivative described in the previous examples were added by serial dilution in triplicate wells. Finally 100 μl of the T-cell suspension (10^6/ml) was added. After 48-hour incubation at 37° C. in 5% CO2, 20 μl of a bromo-deuridine (hereinafter referred as BrdU) 100 μM solution (commercially available as Cell Proliferation Elisa from Boehringer-Mannheim Belgium) was added to each well. After a further overnight incubation, T-cell proliferation was measured using a calorimetric immuno-assay for qualification of cell proliferation based on the incorporation of BrdU during DNA synthesis. Optical density (hereinafter referred as OD) was measured by a Behring EL311 plate reader at 450 nm (reference wavelength: 690 nm). Inhibition of proliferation by the pteridine derivative (drug) was counted while using the formula: […]

Peripheral blood T cells = experiment: In vivo leukocyte activation and immunosuppression whole blood assay (ConA stimulation, FACScan); design: species or system mice; settings: 30 mg/kg per day i.p.; for TCR+, CD69+ peripheral blood T cells after ConA: 2 hours before ConA, baseline 0.5%; for TCR+, CD69+ peripheral blood T cells after ConA / TCR+, IL-2R+ peripheral blood T cells after ConA: untreated up to 3%; for ConA-stimulated CD71 up-regulation on T cells: baseline 4.8%, untreated 9.3% and 5.5% after 1 and 2 days; for CD134 expression on peripheral blood T cells after ConA: untreated up to 6.6% within 2 days, baseline […]
Experimental: Inbred mice (e.g. AKR strain), weighting from 20 to 30 g, were stimulated by intraperitoneal injection with mitogens specific for T cells (e.g. Concanavalin A, hereinafter referred as ConA, 500 μg per mouse), B cells or monocytes/macrophages (e.g. LPS 20 μg per mouse). […] Peripheral blood was collected 24, 36, 48, and respectively 72 hours after stimulation for immune fluorescence staining and FACScan analysis.
FACScan analysis proceeded as follows: heparinized whole blood (50 μl) was removed of red blood cells by incubation with a lysing buffer. The remaining leukocytes were double-stained with phycoerythrin-conjugated antibodies specific for T cells (e.g. T cell receptor TCR), B cells (e.g. CD45R/B220 (commercially available from Pharmingen) or monocytes/macrophages (e.g. F4/80) (commer-cially available from Serotec) in combination with FITC-conjugated antibodies against various cell surface markers such as CD69 (early activation molecule), CD25 (IL-2 receptor), CD71 (transferring receptor), B7-1/2 (ligand for the co-stimulatory molecule CD28) and CD11b (complement receptor 3). Cells were examined by flow cytometry using CellQuest software (commercially available from Decton Dickinson).

[3] = test system: Highly purified T cells stimulated by anti-CD28 mAb; experiment: CD28 assay: T-cell proliferation stimulated by anti-CD28 mAb + PMA (BrdU); format: cell-based, human; settings: Homo sapiens; 50% reduction in T-cell proliferation
Experimental: as §2, §5, §6

Row | SMILES | inhibition at 0.1 µM (IL-5) [%] | animals with metastases (inguinal and/or para-aortic lymph nodes) (B16BL/6 melanoma cells) [%] | inhibition at 0.1 µM (IL-10) [%] | pIC50 [1] | pIC50 [2] | TCR+, CD69+ peripheral blood T cells after ConA (Peripheral blood T cells) [%] | ConA-stimulated CD71 up-regulation on T cells (Peripheral blood T cells) | TCR+, IL-2R+ peripheral blood T cells after ConA (Peripheral blood T cells) [%] | CD134 expression on peripheral blood T cells after ConA (Peripheral blood T cells) [%] | pIC50 [3]
1 | COc1ccc(-c2cnc3nc(N)nc(N4CCOCC4)c3n2)cc1OC [2-amino-4-morpholino-6-(3,4-dimethoxyphenyl)pteridine] | 70 | 33 | 39 | – | – | – | – | – | – | –
2 | CCOc1nc(N)nc2ncc(-c3ccc(OC)c(OC)c3)nc12 [Example 30, 2-amino-6-(3,4-dimethoxyphenyl)-4-ethoxy-pteridine] | – | – | – | 6.05 | 6.15 | 1.6 | baseline levels | 1.5 | 3.5 | 6.15
3 | COc1ccc(-c2cnc3nc(N)nc(OC(C)C)c3n2)cc1OC [Example 45, 2-amino-6-(3,4-dimethoxyphenyl)-4-isopropoxypteridine] | – | – | – | 6.40 | 5.17 | 2.4 | baseline levels | 1.7 | 4.2 | 5.77
